# In patent publication US12331054B2, “Perk inhibiting imidazolopyrazine compounds” (HiberCell, Inc., priority 2019, dated 2025):
# What was measured:
# [1] = target: Recombinant human EIF2AK3 (PERK) catalytic domain (amino acids 536-1116) (Homo sapiens (Human), UniProt Q9NZJ5); assay: PERK In Vitro Activity Assay (isolated), TR-FRET kinase assay; conditions: isolated PERK enzyme, 1.5 μM ATP, read-out: Biochemical IC50
# Outline: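 Recombinant PERK catalytic domain was incubated with 100–200 nM GFP-eIF2a substrate in 50 mM HEPES pH 7.5, 10 mM MgCl2, 1.0 mM EGTA and 0.01% Brij-35 for 45 min at room temperature. After a 10 mM EDTA stop, 2 nM Tb-anti-phospho-eIF2a was added for 90 min, and IC50 was fitted from TR-FRET ratios by 4-parameter logistic regression.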
# [2] = tested on: eIF2α in HEK293-EGFP-eIF2α cells; assay: PERK Cellular Assay (HEK293-EGFP-eIF2α cells, tunicamycin-induced ER stress, TR-FRET); type: cell-based; conditions: tunicamycin 2 hours
# Outline: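 Cells pre-incubated with inhibitor 30 min at 37 °C, then ER stress induced with […] tunicamycin for 2 h. TR-FRET read on lysates; ratio normalized to DMSO control as percent inhibition over a 10-point, 3-fold dilution series; IC50 from 4-parameter logistic fit.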
# Sequence of Recombinant human EIF2AK3 (PERK) catalytic domain (amino acids 536-1116) (Q9NZJ5 536-1116): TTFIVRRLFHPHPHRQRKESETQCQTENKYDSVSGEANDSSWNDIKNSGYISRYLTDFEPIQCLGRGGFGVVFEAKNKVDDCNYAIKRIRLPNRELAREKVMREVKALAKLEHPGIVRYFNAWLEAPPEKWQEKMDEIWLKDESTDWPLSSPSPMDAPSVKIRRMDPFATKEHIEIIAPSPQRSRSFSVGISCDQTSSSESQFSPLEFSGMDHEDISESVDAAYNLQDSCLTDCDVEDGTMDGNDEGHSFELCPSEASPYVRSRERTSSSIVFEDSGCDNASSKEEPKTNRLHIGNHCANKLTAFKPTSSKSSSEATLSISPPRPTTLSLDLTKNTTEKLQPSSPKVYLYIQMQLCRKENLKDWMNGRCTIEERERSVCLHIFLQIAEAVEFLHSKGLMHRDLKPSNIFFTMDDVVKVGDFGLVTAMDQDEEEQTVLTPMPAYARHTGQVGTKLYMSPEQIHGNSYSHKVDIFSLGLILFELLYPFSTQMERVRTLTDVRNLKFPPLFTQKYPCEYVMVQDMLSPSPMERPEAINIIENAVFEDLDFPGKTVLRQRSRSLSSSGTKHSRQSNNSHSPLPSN
Compound,IC50 [1],IC50 [2],IC50 ([2]; 2 h)
"Cc1cnc(N)c2c(-c3ccc(NC(=O)C(O)c4cccc(C(F)(F)F)c4)cc3F)nc(C)n12 (stereo not shown) [Example 93, N-(4-(8-amino-3,5-dimethylimidazo [1,5-a]pyrazin-1-yl)-3-fluoro-phenyl)-2-hydroxy-2-(3-(trifluoromethyl)phenyl)acetamide]",1 to 25 nM,51 to 100 nM,–
"[2H]C([2H])([2H])c1nc(-c2ccc(NC(=O)C(O)c3cccc(C(F)(F)F)c3)cc2F)c2c(N)ncc(C)n12 (stereo not shown) [Example 94, N-[4-[8-amino-5-methyl-3-(trideuteriomethyl)imidazo[1,5-a]pyrazin-1-yl]-3-fluoro-phenyl]-2-hydroxy-2-[3-(trifluoromethyl)phenyl]acetamide]",1 to 25 nM,1 to 25 nM,–
"[2H]C([2H])([2H])c1nc(-c2ccc(NC(=O)C(O)c3cccc(C(F)(F)F)c3)cc2F)c2c(N)ncc(C)n12 (stereo not shown) [Example 95, N-[4-[8-amino-5-methyl-3-(trideuteriomethyl)imidazo[1,5-a]pyrazin-1-yl]-3-fluoro-phenyl]-2-hydroxy-2-[3-(trifluoromethyl)phenyl]acetamide]",1 to 25 nM,51 to 100 nM,–
"[2H]C([2H])([2H])c1nc(-c2ccc(NC(=O)C(O)c3cccc(C(F)(F)F)c3)cc2F)c2c(N)nc(C)cn12 (stereo not shown) [Example 96, N-[4-[8-amino-6-methyl-3-(trideuteriomethyl)imidazo[1,5-a]pyrazin-1-yl]-3-fluoro-phenyl]-2-hydroxy-2-[3-(trifluoromethyl)phenyl]acetamide]",1 to 25 nM,1 to 25 nM,–
"[2H]C([2H])([2H])c1nc(-c2ccc(NC(=O)C(O)c3cccc(C(F)(F)F)c3)cc2F)c2c(N)ncc(C(F)(F)F)n12 (stereo not shown) [Example 98, N-[4-[8-amino-3-(trideuteriomethyl)-5-(trifluoromethyl)imidazo[1,5-a]pyrazin-1-yl]-3-fluoro-phenyl]-2-hydroxy-2-[3-(trifluoromethyl)phenyl]acetamide]",1 to 25 nM,26 to 50 nM,–
"[2H]C([2H])([2H])c1nc(-c2ccc(NC(=O)C(O)c3cccc(C(F)(F)F)c3)cc2F)c2c(N)ncc(C(F)(F)F)n12 (stereo not shown) [Example 99, N-[4-[8-amino-3-(trideuteriomethyl)-5-(trifluoromethyl)imidazo[1,5-a]pyrazin-1-yl]-3-fluoro-phenyl]-2-hydroxy-2-[3-(trifluoromethyl)phenyl]acetamide]",26 to 50 nM,101 to 250 nM,–
"[2H]C([2H])([2H])c1nc(-c2ccc(NC(=O)C(O)c3cccc(C(F)(F)F)c3)cc2F)c2c(N)ncc(Cl)n12 (stereo not shown) [Example 100, N-[4-[8-amino-5-chloro-3-(trideuteriomethyl)imidazo[1,5-a]pyrazin-1-yl]-3-fluoro-phenyl]-2-hydroxy-2-[3-(trifluoromethyl)phenyl]acetamide]",1 to 25 nM,–,1 to 25 nM
"[2H]C([2H])([2H])c1nc(-c2ccc(NC(=O)C(O)c3cc(F)cc(F)c3)cc2F)c2c(N)nc(C)cn12 (stereo not shown) [Example 102, N-[4-[8-amino-6-methyl-3-(trideuteriomethyl)imidazo[1,5-a]pyrazin-1-yl]-3-fluoro-phenyl]-2-(3,5-difluoro-phenyl)-2-hydroxy-acetamide]",1 to 25 nM,1 to 25 nM,–
"[2H]C([2H])([2H])c1nc(-c2ccc(NC(=O)C(O)c3cc(F)cc(F)c3)cc2F)c2c(N)nc(C)cn12 (stereo not shown) [Example 103, N-[4-[8-amino-6-methyl-3-(trideuteriomethyl)imidazo[1,5-a]pyrazin-1-yl]-3-fluoro-phenyl]-2-(3,5-difluoro-phenyl)-2-hydroxy-acetamide]",1 to 25 nM,251 to 500 nM,–
"[2H]C([2H])([2H])c1nc(-c2ccc(NC(=O)C(O)c3cc(F)cc(F)c3)cc2F)c2c(N)ncc(C)n12 (stereo not shown) [Example 104, N-[4-[8-amino-5-methyl-3-(trideuteriomethyl)imidazo[1,5-a]pyrazin-1-yl]-3-fluoro-phenyl]-2-(3,5-difluoro-phenyl)-2-hydroxy-acetamide]",1 to 25 nM,1 to 25 nM,–
"[2H]C([2H])([2H])c1nc(-c2ccc(NC(=O)C(O)c3cc(F)cc(F)c3)cc2F)c2c(N)ncc(C)n12 (stereo not shown) [Example 105, N-[4-[8-amino-5-methyl-3-(trideuteriomethyl)imidazo[1,5-a]pyrazin-1-yl]-3-fluoro-phenyl]-2-(3,5-difluoro-phenyl)-2-hydroxy-acetamide]",1 to 25 nM,26 to 50 nM,–
"[2H]C([2H])([2H])c1nc(-c2ccc(NC(=O)C(O)c3cc(F)cc(F)c3)cc2F)c2c(N)ncc(Cl)n12 (stereo not shown) [Example 108, N-[4-[8-amino-5-chloro-3-(trideuteriomethyl)imidazo[1,5-a]pyrazin-1-yl]-3-fluoro-phenyl]-2-(3,5-difluoro-phenyl)-2-hydroxy-acetamide]",1 to 25 nM,–,1 to 25 nM
"[2H]C([2H])([2H])c1nc(-c2ccc(NC(=O)C(O)c3cc(F)cc(C(F)(F)F)c3)cc2F)c2c(N)nc(C)cn12 (stereo not shown) [Example 116, N-[4-[8-amino-6-methyl-3-(trideuteriomethyl)imidazo[1,5-a]pyrazin-1-yl]-3-fluoro-phenyl]-2-[3-fluoro-5-(trifluoromethyl)phenyl]-2-hydroxy-acetamide]",1 to 25 nM,1 to 25 nM,–
"[2H]C([2H])([2H])c1nc(-c2ccc(NC(=O)C(O)c3cc(F)cc(C(F)(F)F)c3)cc2F)c2c(N)nc(C)cn12 (stereo not shown) [Example 117, N-[4-[8-amino-6-methyl-3-(trideuteriomethyl)imidazo[1,5-a]pyrazin-1-yl]-3-fluoro-phenyl]-2-[3-fluoro-5-(trifluoromethyl)phenyl]-2-hydroxy-acetamide]",51 to 100 nM,251 to 500 nM,–
"[2H]C([2H])([2H])c1nc(-c2ccc(NC(=O)C(O)c3cccc(F)c3)c(F)c2)c2c(N)ncc(C)n12 (stereo not shown) [Example 122, N-[4-[8-amino-5-methyl-3-(trideuteriomethyl)imidazo[1,5-a]pyrazin-1-yl]-2-fluoro-phenyl]-2-(3-fluorophenyl)-2-hydroxy-acetamide]",26 to 50 nM,251 to 500 nM,–

# Second part, led by results:
IC50 [1],Compound,IC50 [2],IC50 ([2]; 2 h)
1 to 25 nM,"[2H]C([2H])([2H])c1nc(-c2ccc(NC(=O)C(O)c3cc(F)cc(F)c3)cc2F)c2c(N)ncc(C(F)(F)F)n12 (stereo not shown) [Example 106, N-[4-[8-amino-3-(trideuteriomethyl)-5-(trifluoromethyl)imidazo[1,5-a]pyrazin-1-yl]-3-fluoro-phenyl]-2-(3,5-difluoro-phenyl)-2-hydroxy-acetamide]",1 to 25 nM,–
1 to 25 nM,"[2H]C([2H])([2H])c1nc(-c2ccc(NC(=O)C(O)c3cc(F)cc(F)c3)cc2F)c2c(N)ncc(C(F)(F)F)n12 (stereo not shown) [Example 107, N-[4-[8-amino-3-(trideuteriomethyl)-5-(trifluoromethyl)imidazo[1,5-a]pyrazin-1-yl]-3-fluoro-phenyl]-2-(3,5-difluoro-phenyl)-2-hydroxy-acetamide]",26 to 50 nM,–
1 to 25 nM,"[2H]C([2H])([2H])c1nc(-c2ccc(NC(=O)C(O)c3cc(F)cc(C(F)(F)F)c3)cc2F)c2c(N)ncc(C)n12 (stereo not shown) [Example 110, N-[4-[8-amino-5-methyl-3-(trideuteriomethyl)imidazo[1,5-a]pyrazin-1-yl]-3-fluoro-phenyl]-2-[3-fluoro-5-(trifluoromethyl)phenyl]-2-hydroxy-acetamide]",1 to 25 nM,–
1 to 25 nM,"[2H]C([2H])([2H])c1nc(-c2ccc(NC(=O)C(O)c3cc(F)cc(C(F)(F)F)c3)cc2F)c2c(N)ncc(C)n12 (stereo not shown) [Example 111, N-[4-[8-amino-5-methyl-3-(trideuteriomethyl)imidazo[1,5-a]pyrazin-1-yl]-3-fluoro-phenyl]-2-[3-fluoro-5-(trifluoromethyl)phenyl]-2-hydroxy-acetamide]",26 to 50 nM,–
1 to 25 nM,"[2H]C([2H])([2H])c1nc(-c2ccc(NC(=O)C(O)c3cc(F)cc(C(F)(F)F)c3)cc2F)c2c(N)ncc(C(F)(F)F)n12 (stereo not shown) [Example 112, N-[4-[8-amino-3-(trideuteriomethyl)-5-(trifluoromethyl)imidazo[1,5-a]pyrazin-1-yl]-3-fluoro-phenyl]-2-[3-fluoro-5-(trifluoromethyl)phenyl]-2-hydroxy-acetamide]",1 to 25 nM,–
51 to 100 nM,"[2H]C([2H])([2H])c1nc(-c2ccc(NC(=O)C(O)c3cc(F)cc(C(F)(F)F)c3)cc2F)c2c(N)ncc(C(F)(F)F)n12 (stereo not shown) [Example 113, N-[4-[8-amino-3-(trideuteriomethyl)-5-(trifluoromethyl)imidazo[1,5-a]pyrazin-1-yl]-3-fluoro-phenyl]-2-[3-fluoro-5-(trifluoromethyl)phenyl]-2-hydroxy-acetamide]",101 to 250 nM,–
1 to 25 nM,"[2H]C([2H])([2H])c1nc(-c2ccc(NC(=O)C(O)c3cc(F)cc(C(F)(F)F)c3)cc2F)c2c(N)ncc(Cl)n12 (stereo not shown) [Example 114, N-[4-[8-amino-5-chloro-3-(trideuteriomethyl)imidazo[1,5-a]pyrazin-1-yl]-3-fluoro-phenyl]-2-[3-fluoro-5-(trifluoromethyl)phenyl]-2-hydroxy-acetamide]",1 to 25 nM,–
1 to 25 nM,"[2H]C([2H])([2H])c1nc(-c2ccc(NC(=O)C(O)c3cc(F)cc(C(F)(F)F)c3)cc2F)c2c(N)ncc(Cl)n12 (stereo not shown) [Example 115, N-[4-[8-amino-5-chloro-3-(trideuteriomethyl)imidazo[1,5-a]pyrazin-1-yl]-3-fluoro-phenyl]-2-[3-fluoro-5-(trifluoromethyl)phenyl]-2-hydroxy-acetamide]",26 to 50 nM,–
